Values after ≈ are worked out from the molar mass of the structure shown. Read-outs that look alike come from different tables or passages of the source.
Tests used:
[1] = biological target: recombinant Pseudomonas aeruginosa LpxC (Pseudomonas aeruginosa (strain ATCC 15692 / DSM 22644 / CIP 104116 / JCM 14847 / LMG 12228 / 1C / PRS 101 / PAO1), UniProt P47205); assay: Inhibition of LpxC enzymatic activity (fluorescamine assay); format: biochemical
Experimental: The degree of inhibition of the enzymatic activity of recombinant Pseudomonas aeruginosa LpxC by the compounds of the present disclosure under in vitro conditions was determined using the following method.
The experimental procedure is briefly described as follows: The test compound was first dissolved in DMSO to prepare a 10 mM stock solution. The reaction was carried out in a 96-well microplate. First, 20 μL of recombinant Pseudomonas aeruginosa LpxC (purchased from Signalway Antibody, product number AP74647-2) was added to each well, with a final concentration of 5 nM. 5 μL of the compound to be tested was then added, and the compound was diluted 4 times to 8 concentration points with a concentration range of 0.61-10,000 nM. 5 μL of LpxC substrate UDP-3-O—(R-3-hydroxydecanoyl)-GlcNAc (purchased from Biosynth Carbosynth, product number: mu75071) was added, with a final concentration of the substrate of 10 μM. The plate was incubated at 25° C. for 120 minutes. Then 20 μL of 2.0 mg/mL fluorescamine (purchased from sigmaaldrich, product number: F9015, solvent: 1:1 dimethylformamide/acetonitrile) was added to the reaction system, and mixed well for 10 minutes of reaction. Finally, 50 μL of 200 mM sodium phosphate buffer (pH 8.0) was added to terminate the reaction. Reading was carried out using a microplate reader (BMG), and the excitation and emission wavelengths were 390 and 495 nm respectively. By comparing with the fluorescence intensity ratio of the control group ([…]), the percentage inhibition rate of the compound at each concentration was calculated.

K. pneumoniae ATCC13883 = assay: Antibacterial activity, MIC by broth microdilution (CLSI); format: cell-based; details: Klebsiella pneumoniae
Experimental: (§1) The in vitro minimum inhibitory concentration (MIC) was determined in accordance with the CLSI guidelines, and was measured using the broth microdilution method.
(§2) The experimental process is briefly described as follows: The test compound was dissolved in DMSO to prepare a […] stock solution, which was then prepared into 11 twice-diluted 100× high-concentration working solutions (the final concentration of the system was 64 μg/mL-0.06 μg/mL) using DMSO. The strains (K. pneumoniae ATCC13883 and E. coli ATCC 25922) frozen in −80° C. glycerol were inoculated into solid agar medium, placed in an incubator at 35° C. for 18-24 hours of incubation. After the preparation of strains was completed, an appropriate amount of solid plate culture was collected, resuspended in physiological saline, and mixed well. The bacterial suspension was adjusted to a suitable turbidity using a turbidity meter, containing approximately 1×10^8 cfu/mL bacteria. Then the bacterial suspension with the adjusted turbidity was diluted to a bacterial concentration of 5×10^5 cfu/ml using the culture medium for measurement, to complete the preparation of the inoculum solution. 198 μL of the inoculum solution was inoculated into a 96-well plate, and then added with 2 μL of a 100× high-concentration working solution of the compound. Then the 96-well plate was placed at 35° C. for 18 to 24 hours of incubation.

E. coli ATCC 25922 = assay: as above; format: cell-based; details: Escherichia coli
Experimental: as §1, §2

[2] = recombinant P. aeruginosa LpxC 5 nM, substrate 10 μM, 25° C., 120 minutes, read-out: IC50
[3] = K. pneumoniae ATCC13883, 35° C., 18 to 24 hours, read-out: MIC(K. Pneumoniae)
[4] = ATCC25922, E. coli ATCC 25922, 35° C., 18 to 24 hours, read-out: MIC(E. coli)

Compound	IC50 [1, 2] [nM]	MIC (K. pneumoniae ATCC13883; [3]) [µg/mL]	MIC (E. coli ATCC 25922; [4]) [µg/mL]	MIC (K. pneumoniae ATCC13883; ATCC13883, read-out: MIC(K. Pneumoniae)) [µg/mL]	MIC (E. coli ATCC 25922; ATCC25922, read-out: MIC(E. coli)) [µg/mL]	IC50 [1] [nM]
C[C@H](O)c1nccn1Cc1cc(-c2ccc(C#Cc3ccc(C(=O)N4CCN(C)CC4)cc3)cc2)on1 [Example 42, (S)-(4-((4-(3-((2-(1-hydroxyethyl)-1H-imidazol-1-yl)methyl)isoxazol-5-yl)phenyl)ethynyl)phenyl)(4-methylpiperazin-1-yl)methanone]	5.78	4 (≈ 8.07 µM)	2 (≈ 4.04 µM)	–	–	–
C[C@H](O)c1nccn1Cc1cc(-c2ccc(C#Cc3ccc(C(O)CO)cc3)cc2)on1 (stereo partly drawn) [Example 30, 1-(4-((4-(3-((2-((S)-1-hydroxyethyl)-1H-imidazol-1-yl)methyl)isoxazol-5-yl)phenyl)ethynyl)phenyl)ethane-1,2-diol]	12.7	1 (≈ 2.33 µM)	0.5 (≈ 1.16 µM)	–	–	–
C[C@H](O)c1nccn1Cc1cc(-c2ccc(C#Cc3ccc(CN4CCNC(=O)C4)cc3)cc2)on1 [Example 54, (S)-4-(4-((4-(3-((2-(1-hydroxyethyl)-1H-imidazol-1-yl)methyl)isoxazol-5-yl)phenyl)ethynyl)benzyl)piperazin-2-one]	16.2	4 (≈ 8.31 µM)	2 (≈ 4.15 µM)	–	–	–
C[C@H](O)c1nccn1Cc1cc(-c2ccc(C#Cc3ccc(CNCCC(=O)O)cc3)cc2)on1 [Example 55, (S)-3-((4-((4-(3-((2-(1-hydroxyethyl)-1H-imidazol-1-yl)methyl)isoxazol-5-yl)phenyl)ethynyl)benzyl)amino)propanoic acid]	24.4	8 (≈ 17 µM)	8 (≈ 17 µM)	–	–	–
C[C@H](O)c1nccn1Cc1cc(-c2ccc(C#Cc3ccc(CN4CC(C#N)C4)cc3)cc2)on1 [Example 52, (S)-1-(4-((4-(3-((2-(1-hydroxyethyl)-1H-imidazol-1-yl)methyl)isoxazol-5-yl)phenyl)ethynyl)benzyl)azetidin-3-carbonitrile]	11.2	1 (≈ 2.16 µM)	0.25 (≈ 0.539 µM)	–	–	–
C[C@H](O)c1nccn1Cc1cc(-c2ccc(C#Cc3ccc(Cn4cccn4)cc3)cc2)on1 [Example 33, (S)-1-(1-((5-(4-((4-((1H-pyrazol-1-yl)methyl)phenyl)ethynyl)phenyl)isoxazol-3-yl)methyl)-1H-imidazol-2-yl)ethan-1-ol]	28.1	0.25 (≈ 0.556 µM)	0.125 (≈ 0.278 µM)	–	–	–
C[C@H](O)c1nccn1Cc1cc(-c2ccc(C#Cc3ccc(OCCO)cc3)cc2)on1 [Example 29, (S)-1-(1-((5-(4-((4-(2-hydroxyethoxy)phenyl)ethynyl)phenyl)isoxazol-3-yl)methyl)-1H-imidazol-2-yl)ethan-1-ol]	14	–	–	0.25 (≈ 0.582 µM)	0.25 (≈ 0.582 µM)	–
C[C@H](O)c1nccn1Cc1cc(-c2ccc(C#Cc3ccc(CNCCS(C)(=O)=O)nc3)cc2)on1 [Example 59, (S)-1-(1-((5-(4-((6-(((2-(methylsulfonyl)ethyl)amino)methyl)pyridin-3-yl)ethynyl)phenyl)isoxazol-3-yl)methyl)-1H-imidazol-2-yl)ethan-1-ol]	21.8	8 (≈ 15.8 µM)	2 (≈ 3.96 µM)	–	–	–
C[C@H](O)c1nccn1Cc1cc(-c2ccc(C#Cc3ccc(CN4CC(C(N)=O)C4)cc3)cc2)on1 [Example 53, (S)-1-(4-((4-(3-((2-(1-hydroxyethyl)-1H-imidazol-1-yl)methyl)isoxazol-5-yl)phenyl)ethynyl)benzyl)azetidin-3-carboxamide]	13.7	4 (≈ 8.31 µM)	1 (≈ 2.08 µM)	–	–	–
C[C@H](O)c1nccn1Cc1cc(-c2ccc(C#Cc3ccc(CO)nc3)cc2)on1 [Example 37, (S)-1-(1-((5-(4-((6-(hydroxymethyl)pyridin-3-yl)ethynyl)phenyl)isoxazol-3-yl)methyl)-1H-imidazol-2-yl)ethan-1-ol]	3.55	2 (≈ 4.99 µM)	1 (≈ 2.5 µM)	–	–	–
C[C@H](O)c1nccn1Cc1cc(-c2ccc(C#Cc3ccncc3)cc2)on1 [Example 10, (S)-1-(1-((5-(4-(pyridin-4-ylethynyl)phenyl)isoxazol-3-yl)methyl)-1H-imidazol-2-yl)ethan-1-ol]	30.4	1 (≈ 2.7 µM)	0.5 (≈ 1.35 µM)	–	–	–
C[C@H](O)c1nccn1Cc1cc(-c2ccc(C#Cc3ccccc3)cc2)on1 [Example 7, (S)-1-(1-((5-(4-(phenylethynyl)phenyl)isoxazol-3-yl)methyl)-1H-imidazol-2-yl)ethan-1-ol]	73.1	0.5 (≈ 1.35 µM)	0.25 (≈ 0.677 µM)	–	–	–
C[C@H](O)c1nccn1Cc1cc(-c2ccc(C#Cc3ccc(CNCCO)cc3)cc2)on1 [Example 34, (S)-2-((4-((4-(3-((2-(1-hydroxyethyl)-1H-imidazol-1-yl)methyl)isoxazol-5-yl)phenyl)ethynyl)benzyl)amino)ethan-1-ol]	–	2 (≈ 4.52 µM)	1 (≈ 2.26 µM)	–	–	4.86
C[C@H](O)c1nccn1Cc1cc(-c2ccc(C#Cc3ccc(CN4CCC(O)CC4)cc3)cc2)on1 [Example 18, (S)-1-(4-((4-(3-((2-(1-hydroxyethyl)-1H-imidazol-1-yl)methyl)isoxazol-5-yl)phenyl)ethynyl)benzyl)piperidin-4-ol]	9.84	4 (≈ 8.29 µM)	2 (≈ 4.14 µM)	–	–	–
CC(=O)c1ccc(C#Cc2ccc(-c3cc(Cn4ccnc4[C@H](C)O)no3)cc2)cc1 [Example 26, (S)-1-(4-((4-(3-((2-(1-hydroxyethyl)-1H-imidazol-1-yl)methyl)isoxazol-5-yl)phenyl)ethynyl)phenyl)ethan-1-one]	71.7	0.5 (≈ 1.22 µM)	0.125 (≈ 0.304 µM)	–	–	–
C[C@H](O)c1nccn1Cc1cc(-c2ccc(C#Cc3ccc(CCC(=O)O)cc3)cc2)on1 [Example 27, (S)-3-(4-((4-(3-((2-(1-hydroxyethyl)-1H-imidazol-1-yl)methyl)isoxazol-5-yl)phenyl)ethynyl)phenyl)propanoic acid]	4.25	2 (≈ 4.53 µM)	1 (≈ 2.27 µM)	–	–	–
C[C@H](O)c1nccn1Cc1cc(-c2ccc(C#Cc3ccc(CN4CCC(O)CC4)nc3)cc2)on1 [Example 36, (S)-1-((5-((4-(3-((2-(1-hydroxyethyl)-1H-imidazol-1-yl)methyl)isoxazol-5-yl)phenyl)ethynyl)pyridin-2-yl)methyl)piperidin-4-ol]	8.33	4 (≈ 8.27 µM)	2 (≈ 4.14 µM)	–	–	–
C[C@H](O)c1nccn1Cc1cc(-c2ccc(C#Cc3cccc(OCC#N)c3)cc2)on1 [Example 38, (S)-2-(3-((4-(3-((2-(1-hydroxyethyl)-1H-imidazol-1-yl)methyl)isoxazol-5-yl)phenyl)ethynyl)phenoxy)acetonitrile]	50.8	1 (≈ 2.36 µM)	0.5 (≈ 1.18 µM)	–	–	–
C[C@H](O)c1nccn1Cc1cc(-c2ccc(C#Cc3ccc(CC(N)=O)nc3)cc2)on1 [Example 62, (S)-2-(5-((4-(3-((2-(1-hydroxyethyl)-1H-imidazol-1-yl)methyl)isoxazol-5-yl)phenyl)ethynyl)pyridin-2-yl)acetamide]	21.3	4 (≈ 9.36 µM)	1 (≈ 2.34 µM)	–	–	–
C[C@H](O)c1nccn1Cc1cc(-c2ccc(C#Cc3ccc(CN4CCC(CO)CC4)cc3)cc2)on1 [Example 56, (S)-1-(1-((5-(4-((4-((4-(hydroxymethyl)piperidin-1-yl)methyl)phenyl)ethynyl)phenyl)isoxazol-3-yl)methyl)-1H-imidazol-2-yl)ethan-1-ol]	14.7	4 (≈ 8.05 µM)	2 (≈ 4.03 µM)	–	–	–
C[C@H](O)c1nccn1Cc1cc(-c2ccc(C#Cc3cccc(C(N)=O)c3)cc2)on1 [Example 63, (S)-3-((4-(3-((2-(1-hydroxyethyl)-1H-imidazol-1-yl)methyl)isoxazol-5-yl)phenyl)ethynyl)benzamide]	65.1	4 (≈ 9.7 µM)	2 (≈ 4.85 µM)	–	–	–

— patent US20240382465A1, “AROMATIC ACETYLENE DERIVATIVE, AND PREPARATION METHOD THEREFOR AND USE THEREOF” (priority 2021, published 2024)
